Key:
[1] = target: T1, recombinant human ALK5 (TGF-βR1) protein (Homo sapiens, UniProt P36897); assay: Biochemical ALK5 (TGF-βR1) assay to measure pKi (LANCE Ultra ULight kinase assay); details: apparent pKi from pIC50 by Cheng-Prusoff, read-out: ALK5 pKi (converted)
T1 construct: purchased Life Technologies PR9075A
T1 sequence (P36897 34-503): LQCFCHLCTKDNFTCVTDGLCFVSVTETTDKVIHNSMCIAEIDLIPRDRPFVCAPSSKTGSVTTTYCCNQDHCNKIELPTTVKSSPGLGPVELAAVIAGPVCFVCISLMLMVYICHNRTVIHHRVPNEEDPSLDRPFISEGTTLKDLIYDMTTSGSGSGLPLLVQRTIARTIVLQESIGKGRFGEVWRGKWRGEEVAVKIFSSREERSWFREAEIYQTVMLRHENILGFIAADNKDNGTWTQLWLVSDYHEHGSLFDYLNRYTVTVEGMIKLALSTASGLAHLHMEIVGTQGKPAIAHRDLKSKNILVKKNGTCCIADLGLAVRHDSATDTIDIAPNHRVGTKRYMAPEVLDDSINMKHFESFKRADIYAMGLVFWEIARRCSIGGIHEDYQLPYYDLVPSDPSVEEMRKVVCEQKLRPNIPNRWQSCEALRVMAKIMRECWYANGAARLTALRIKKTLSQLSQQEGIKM
How it was run: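 After a 60 min room-temperature preincubation of ALK5 with compound, phosphorylation proceeds 60 min at 37 °C on ATP addition (125 μM as 5× stock). Detection: Eu-labelled phospho-Thr1342 Topo IIα antibody in EDTA buffer, pH 7.0; emission 665 nm.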

[2] = test system: TGF-β-stimulated SMAD3 phosphorylation in BEAS-2B cells; assay: Cellular ALK5 potency assay, inhibition of TGF-β stimulated pSMAD3 formation in BEAS-2B cells; format: cell-based; details: Homo sapiens; inhibition of TGF-β stimulated pSMAD3 formation, BEAS-2B cells; read-out: BEAS2B pIC50 (converted)
How it was run: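 SMAD3 phosphorylation was measured by AlphaLISA after 30 min TGF-β stimulation (10 ng/mL final) of BEAS-2B cells preincubated 1 h with compound at 37 °C. Results given as pIC50.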

| Ki [1] [nM] | SMILES | IC50 [2] [nM] |
| --- | --- | --- |
| < 0.0316 | Cc1nc(-c2n[nH]cc2-c2ccc3ncc(-c4nc5c([nH]4)CCNCC5)cc3n2)ccc1F [Compound 611, 2-[6-[3-(5-fluoro-6-methyl-2-pyridyl)-1H-pyrazol-4-yl]-1,5-naphthyridin-3-yl]-1,4,5,6,7,8-hexahydroimidazo[4,5-d]azepine] | 1580 to 10000 |
| 0.0398 to 0.316 | Cc1cccc(-c2n[nH]cc2-c2ccc3ncc(-c4cc[nH]n4)cc3n2)n1 [Compound 612, 2-[3-(6-methyl-2-pyridyl)-1H-pyrazol-4-yl]-7-(1H-pyrazol-3-yl)-1,5-naphthyridine] | 25.1 to 158 |
| 0.0398 to 0.316 | COC(=O)N1CCc2nnc(-c3cnc4ccc(-c5c[nH]nc5-c5cccc(C)n5)nc4c3)cc2C1 [Compound 613, methyl 3-[6-[3-(6-methyl-2-pyridyl)-1H-pyrazol-4-yl]-1,5-naphthyridin-3-yl]-7,8-dihydro-5H-pyrido[4,3-c]pyridazine-6-carboxylate] | 25.1 to 158 |
| 0.0398 to 0.316 | CNC1CN(c2cnc3ccc(-c4nc[nH]c4-c4cccc(C)n4)cc3c2)C1 [Compound 614, N-methyl-1-[6-[5-(6-methyl-2-pyridyl)-1H-imidazol-4-yl]-3-quinolyl]azetidin-3-amine] | 25.1 to 158 |
| 0.0398 to 0.316 | Cc1cccc(-c2n[nH]cc2-c2ccc3ncc(CCCN4CCN(C(C)C)CC4)cc3n2)n1 [Compound 615, 7-[3-(4-isopropylpiperazin-1-yl)propyl]-2-[3-(6-methyl-2-pyridyl)-1H-pyrazol-4-yl]-1,5-naphthyridine] | 25.1 to 158 |
| 0.0398 to 0.316 | Cc1cccc(-c2[nH]cnc2-c2ccc3ncc(-c4ccc(C(=O)OC5CNC5)nc4)cc3c2)n1 [Compound 616, azetidin-3-yl 5-[6-[5-(6-methyl-2-pyridyl)-1H-imidazol-4-yl]-3-quinolyl]pyridine-2-carboxylate] | 25.1 to 158 |
| < 0.0316 | Cc1cccc(-c2n[nH]cc2-c2ccc3ncc(N4CCC(C)(O)CC4)cc3n2)n1 [Compound 617, 4-methyl-1-[6-[3-(6-methyl-2-pyridyl)-1H-pyrazol-4-yl]-1,5-naphthyridin-3-yl]piperidin-4-ol] | < 20 |
| 0.0398 to 0.316 | Cc1cccc(-c2[nH]cnc2-c2ccc3ncc(NC(=O)C4CCNC4)cc3c2)n1 (centres unmarked) [Compound 618, N-[6-[5-(6-methyl-2-pyridyl)-1H-imidazol-4-yl]-3-quinolyl]pyrrolidine-3-carboxamide] | 200 to 1260 |
| 0.0398 to 0.316 | Cc1cccc(-c2n[nH]cc2-c2ccc3ncc(NCCN4CCN(C)CC4)cc3n2)n1 [Compound 619, N-[2-(4-methylpiperazin-1-yl)ethyl]-6-[3-(6-methyl-2-pyridyl)-1H-pyrazol-4-yl]-1,5-naphthyridin-3-amine] | 25.1 to 158 |
| 0.0398 to 0.316 | Cc1nc(-c2nc3ccccn3c2-c2ccc3ncc(NCCN4CCN(C(C)C)CC4)cc3c2)ccc1F [Compound 620, 6-[2-(5-fluoro-6-methyl-2-pyridyl)imidazo[1,2-a]pyridin-3-yl]-N-[2-(4-isopropylpiperazin-1-yl)ethyl]quinolin-3-amine] | 25.1 to 158 |
| 0.0398 to 0.316 | Cc1cccc(-c2[nH]nnc2-c2ccc3ncc(NCCN4CCN(C(C)C)CC4)cc3c2)n1 [Compound 621, N-(2-(4-isopropylpiperazin-1-yl)ethyl)-6-(5-(6-methylpyridin-2-yl)-1H-1,2,3-triazol-4-yl)quinolin-3-amine] | 25.1 to 158 |
| 0.0398 to 0.316 | Cc1cccc(-c2n[nH]cc2-c2ccc3ncc(-c4[nH]nc5c4CCNC5)cc3n2)n1 [Compound 622, 2-[3-(6-methyl-2-pyridyl)-1H-pyrazol-4-yl]-7-(4,5,6,7-tetrahydro-2H-pyrazolo[3,4-c]pyridin-3-yl)-1,5-naphthyridine] | 200 to 1260 |
| 0.0398 to 0.316 | Cc1cccc(-c2[nH]cnc2-c2ccc3ncc(NCCN4CCC[C@H](N)C4)cc3c2)n1 [Compound 623, N-[2-[(3S)-3-amino-1-piperidyl]ethyl]-6-[5-(6-methyl-2-pyridyl)-1H-imidazol-4-yl]quinolin-3-amine] | 200 to 1260 |

Source: patent US11590116B2 (THERAVANCE BIOPHARMA R&D IP, LLC, priority 2019, dated 2023)
